# Values quoted from earlier work as cited in EP4520317A1, “TRANSDERMAL THERAPEUTIC SYSTEM OF LUMATEPERONE” (Luye Pharma Switzerland AG, priority 2023, dated 2025).
# Settings: in vivo
smiles,measurement,value
"CN1CCN2c3c(cccc31)[C@@H]1CN(CCCC(=O)c3ccc(F)cc3)CC[C@@H]12 [lumateperone, 1-(4-fluoro-phenyl)-4-((6bR, 10aS)-3-methyl-2,3,6b,9,10,10a-hexahydro-1H,7H-pyrido[3',4':4,5]pyrrolo[1,2,3-de]quinoxalin-8-yl)-butan-1-one]",oral bioavailability,about 4.4%
